PubChem BioAssay (NCI)
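How tested: cells in 96-well plates exposed to compound for 48 hours at five concentrations. The concentration for 50% growth inhibition is given as GI50. TGI: concentration producing complete growth inhibition.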

What was measured:
Experiment in all cases: NCI tumour cell line growth inhibition, 48 h
[1] = tested on: HOP-62 NSCLC
[2] = tested on: SK-MEL-5 melanoma
[3] = tested on: SF-268 CNS
[4] = tested on: OVCAR-3 ovarian
[5] = tested on: K-562 leukemia
[6] = tested on: SK-OV-3 ovarian
[7] = tested on: A498 renal
[8] = tested on: EKVX NSCLC
[9] = tested on: A549 NSCLC
[10] = tested on: RPMI-8226 leukemia

Row | Compound | TGI [1] [µM] | TGI [2] [µM] | TGI [3] [µM] | TGI [4] [µM] | TGI [5] [µM] | TGI [6] [µM] | TGI [7] [µM] | TGI [8] [µM] | TGI [9] [µM] | TGI [10] [µM] | GI50 [1] [nM] | GI50 [2] [nM] | GI50 [3] [nM] | GI50 [4] [nM] | GI50 [6] [nM] | GI50 [7] [nM] | GI50 [8] [nM] | GI50 [9] [nM] | GI50 [10] [nM] | GI50 [5] [nM]
1 | O=C(NC(Cc1ccc(I)cc1)C(=O)O)c1ccc(Cl)cc1 (stereo not drawn) | > 100 | > 100 | > 100 | > 100 | > 100 | > 100 | > 100 | > 100 | > 100 | > 100 |  |  |  |  |  |  |  |  |  | 
2 | CO/N=C(\C)c1cccc(Nc2nc3ccccc3c3occc23)c1 | 28.7 | 28.7 | 32.5 | 33.1 | 38.2 | 27.1 | 17.3 | 26.8 | 30 | 40.8 |  |  |  |  |  |  |  |  |  | 
3 | COc1cc([N+](=O)[O-])ccc1N1C(=O)C2c3[nH]c4ccccc4c3C3CCC(C(C)(C)C)CC3C2C1=O (stereo not drawn) | 81.2 | > 100 |  | > 100 |  | > 100 | > 100 | > 100 | > 100 | > 100 |  |  |  |  |  |  |  |  |  | 
4 | O=C1OC2(OC2c2ccc(Cl)cc2)c2ccccc21 (stereo not drawn) | 41.6 |  | > 100 | > 100 | > 100 | > 100 |  | > 100 | > 100 | > 100 |  |  |  |  |  |  |  |  |  | 
5 | CNC(C)Cc1ccccc1OC (stereo not drawn) | > 100 | > 100 | > 100 | > 100 | > 100 | > 100 | > 100 | > 100 | > 100 | > 100 |  |  |  |  |  |  |  |  |  | 
6 | Cc1ccc([N+](=O)[O-])cc1S(=O)(=O)Nc1ccc(C2=NOC(c3ccccc3O)C2)cc1 (stereo not drawn) | > 100 | 49.4 | > 100 | 24.1 | > 100 | > 100 | 32.6 | > 100 | 71.8 | > 100 |  |  |  |  |  |  |  |  |  | 
7 | CCOP(=O)(OCC)C(Nc1cccc(F)c1)c1ccc(N(C)C)cc1 (stereo not drawn) | > 100 | > 100 | > 100 | > 100 | > 100 | > 100 | > 100 | > 100 | > 100 | > 100 |  |  |  |  |  |  |  |  |  | 
8 | CC1C(=O)C(C)C(c2ccco2)N(N=O)C1c1ccco1 (stereo not drawn) | > 100 | > 100 | > 100 | > 100 | > 100 | > 100 | > 100 | > 100 | > 100 | > 100 |  |  |  |  |  |  |  |  |  | 
9 | O=c1c2cc(S(=O)(=O)O)ccc2nc(COc2ccc(Oc3ccc(Cl)cc3Cl)cc2)n1C(=S)Nc1ccc(Cl)cc1 | 44.4 | 33.1 | 31.3 | 51.7 | 30.8 | 49 | 52.5 | 56.6 | 53.1 | 81.5 |  |  |  |  |  |  |  |  |  | 
10 | Cc1ccc(N=NC(C2=NC(=O)CS2)c2nc3ccccc3[nH]2)cc1 (stereo not drawn) | 69.3 | > 100 | > 100 | > 100 | > 100 | > 100 | > 100 | > 100 | > 100 | > 100 |  |  |  |  |  |  |  |  |  | 
11 | C[n+]1c2ccccc2c(CNC(CS)C(=O)O)c2ccccc21 (stereo not drawn) | 39.1 |  | > 100 | 62 | > 100 | 56.8 | 53.8 | > 100 | 83.9 | 50.5 |  |  |  |  |  |  |  |  |  | 
12 | CCOC(=O)Nc1cc2c(c(N)n1)N=C(c1ccc3ccccc3c1)CN2 |  | 4.69 | > 86.1 | 10.7 | 10.3 | 18.9 | 35.2 | > 100 | 23.8 |  |  |  |  |  |  |  |  |  |  | 
13 | CS(=O)(=O)OCCN(CCOS(C)(=O)=O)c1ccc(/C=N/Nc2ncnc3nc[nH]c23)cc1 | 74.8 | 31.7 | 46.1 | 39.8 | > 100 | > 100 | 60.6 | 78.4 | 96.6 | 39 |  |  |  |  |  |  |  |  |  | 
14 | Nc1nc(OCC2CCCCC2)c2[nH]cnc2n1 | 53.9 | 67.2 | > 100 | 35.7 | > 100 | 68.5 | 54.4 | 61.9 | 81.5 | 55.5 |  |  |  |  |  |  |  |  |  | 
15 | CN(C)c1ccc(/C=c2/c3ccccc3n3c2cc(NC(=O)NCCC[N+](C)(C)C)[n+]3C)cc1 | > 100 | > 100 | > 100 | > 100 | > 100 | > 100 | > 100 | > 100 | > 100 | > 100 |  |  |  |  |  |  |  |  |  | 
16 | NCCNCCNc1ccc(NCCNCCN)c2c1C(=O)c1c(O)ccc(O)c1C2=O | > 100 | > 100 | > 100 | > 100 | > 100 | > 100 | > 100 | > 100 | > 100 | > 100 |  |  |  |  |  |  |  |  |  | 
17 | CCO[C@]12CCC[C@H]1[C@@H]1C(=O)c3ccccc3C(=O)C1=C(C)O2 | > 100 | > 100 | > 100 | 50.3 | 94.7 | > 100 | > 100 | > 100 | > 100 | > 100 |  |  |  |  |  |  |  |  |  | 
18 | CC1(C=O)CCC23COC4(CCC5C6(C)CCC(OC7OCC(OC8OC(CO)C(O)C(OC9OC(CO)C(O)C(O)C9O)C8OC8OCC(O)C(O)C8O)C(O)C7OC7OC(CO)C(O)C(O)C7O)C(C)(C)C6CCC5(C)C4(C)CC2O)C3C1 (stereo not drawn) | 3.6 | 2.96 | 2.47 | 2.79 | > 100 | 2.57 | 1.94 | 2.89 | 3.53 | 4.45 |  |  |  |  |  |  |  |  |  | 
19 | CCCCCCCN(CCCCCCC)CC(O)c1cc2ccccc2c2cc(Br)ccc12 (stereo not drawn) | > 100 |  | 54.8 | 36.4 | > 100 | > 100 | > 100 | > 100 |  | > 100 |  |  |  |  |  |  |  |  |  | 
20 | COc1cc([N+](=O)[O-])ccc1NC(=O)c1cccc([N+](=O)[O-])c1O | > 100 | 31 | > 100 | > 100 | > 100 | 77.9 | 51.7 | 78.8 | 66.6 | 61.9 |  |  |  |  |  |  |  |  |  | 
21 | Oc1ccc(-c2nc3cc(F)ccc3s2)cc1 | 63 | 41.6 | 74 | 41.5 | 72.3 | 50.7 |  | 38 | 40.6 | 60.5 |  |  |  |  |  |  |  |  |  | 
22 | c1ccc([P+](c2ccccc2)(c2ccccc2)c2ccc(-c3ccc([P+](c4ccccc4)(c4ccccc4)c4ccccc4)cc3)cc2)cc1 | > 100 | 3.32 | > 100 | 52.4 | > 100 | > 100 | 10.3 | > 100 | 87.9 | > 100 |  |  |  |  |  |  |  |  |  | 
23 | CC1(O)COCCCCOc2c(CN)cccc2NC(=O)c2nc(cnc2N)-c2ccc(cc2)S(=O)(=O)C(C)(C)C1 (stereo not drawn) | 3.17 | 2.56 | 3.19 | 2.56 |  | 2.8 | 1.43 | 3.38 | 2.34 | 3.5 | 1260 | 1250 | 1510 | 1230 | 1370 | 16.3 | 1680 | 290 | 1200 | 
24 | CC1CC(Br)C(=O)O1 (stereo not drawn) | > 100 | > 100 | > 100 | > 100 | > 100 | > 100 | > 100 | > 100 | > 100 | > 100 |  |  |  |  |  |  |  |  |  | 
25 | N=C(N)SCc1cccc([N+](=O)[O-])c1 | > 78.1 | > 100 | > 100 | 39.9 | > 62.3 | > 81.4 | > 74 | > 100 | > 100 | 59.1 |  |  |  |  |  |  |  |  |  | 
26 | CCc1ccc2c(c1)C(=O)c1c-2n(CCCN)c(=O)c2cc([N+](=O)[O-])ccc12 | 2.78 | 3.12 |  | 2.96 | 0.756 |  |  | 3.11 |  |  | 1370 | 1600 |  | 1580 |  |  | 1670 |  |  | 243
27 | c1c2c(cc3c1OCO3)-c1cc3ccc4c(c3c[n+]1CC2)OCO4 | > 12.5 | > 5 | > 12.5 | > 3.26 | > 12.5 | > 12.5 | > 12.5 | > 12.5 | > 12.5 | > 12.5 |  |  |  |  |  |  |  |  |  | 
